Measured values reported in ChEMBL document CHEMBL2346504, “Olive secoiridoids and semisynthetic bioisostere analogues for the control of metastatic breast cancer” (Bioorg Med Chem, 2013).
Calls of active or inactive are those of the source. The rule behind the calls is not given here.

How the values were obtained:
[1] = biological target: T1, Hepatocyte growth factor receptor (Homo sapiens, UniProt P08581); conditions: 25 to 100 nM
Description: Competitive inhibition of c-MET phosphorylation (unknown origin) at 25 to 100 nM after 60 mins by Omnia kinase assay

[2] = test system: MDA-MB-231; assay: Cytotoxicity against human MDA-MB-231 cells after 24 hrs by MTT assay; conditions: MDA-MB-231, 24 h
[3] = test system: MDA-MB-231; assay: Antimigratory activity against human MDA-MB-231 cells after 24 hrs by wound healing assay; conditions: MDA-MB-231, 24 h
[4] = test system: MDA-MB-231; assay: Antimigratory activity against human MDA-MB-231 cells at 50 uM after 24 hrs by wound healing assay; type: functional, cell-based
[5] = test system: MCF-10A; assay: Cytotoxicity against human MCF10A cells at IC50 in wound healing assay after 24 hrs by MTT assay; type: cell-based
[6] = test system: MCF-10A; assay: Cytotoxicity against human MCF10A cells at IC50 in MDA-MB-231 MTT assay after 24 hrs by MTT assay; type: cell-based
[7] = test system: MDA-MB-231; assay: Antiinvasive activity against human MDA-MB-231 cells at 10 to 20 uM after 24 hrs by Cultrex BME assay; type: functional, cell-based
[8] = biological target: T1, Hepatocyte growth factor receptor; assay: Inhibition of c-MET phosphorylation (unknown origin) at 10 uM after 1 hr by Z'-LYTE kinase assay
[9] = biological target: T1, Hepatocyte growth factor receptor; assay: Competitive inhibition of c-MET phosphorylation (unknown origin) after 60 mins by Omnia kinase assay
[10] = test system: MDA-MB-231; assay: Antimigratory activity against human MDA-MB-231 cells at 10 uM after 24 hrs by wound healing assay; type: functional, cell-based
[11] = test system: MDA-MB-231; assay: Antimigratory activity against human MDA-MB-231 cells at 25 uM after 24 hrs by wound healing assay; type: functional; conditions: for inhibition at 25 µM: MDA-MB-231, 24 h
[12] = test system: MDA-MB-231; assay: Antiinvasive activity against human MDA-MB-231 cells at 20 uM after 24 hrs by Cultrex BME assay; type: functional; conditions: MDA-MB-231, 24 h
[13] = test system: MDA-MB-231; assay: Antiinvasive activity against human MDA-MB-231 cells assessed as cell invasion at 20 uM after 24 hrs by Cultrex BME assay; type: functional
[14] = test system: MDA-MB-231; assay: Antiinvasive activity against human MDA-MB-231 cells assessed as cell invasion at 10 uM after 24 hrs by Cultrex BME assay; type: functional

T1 sequence (P08581 whole entry): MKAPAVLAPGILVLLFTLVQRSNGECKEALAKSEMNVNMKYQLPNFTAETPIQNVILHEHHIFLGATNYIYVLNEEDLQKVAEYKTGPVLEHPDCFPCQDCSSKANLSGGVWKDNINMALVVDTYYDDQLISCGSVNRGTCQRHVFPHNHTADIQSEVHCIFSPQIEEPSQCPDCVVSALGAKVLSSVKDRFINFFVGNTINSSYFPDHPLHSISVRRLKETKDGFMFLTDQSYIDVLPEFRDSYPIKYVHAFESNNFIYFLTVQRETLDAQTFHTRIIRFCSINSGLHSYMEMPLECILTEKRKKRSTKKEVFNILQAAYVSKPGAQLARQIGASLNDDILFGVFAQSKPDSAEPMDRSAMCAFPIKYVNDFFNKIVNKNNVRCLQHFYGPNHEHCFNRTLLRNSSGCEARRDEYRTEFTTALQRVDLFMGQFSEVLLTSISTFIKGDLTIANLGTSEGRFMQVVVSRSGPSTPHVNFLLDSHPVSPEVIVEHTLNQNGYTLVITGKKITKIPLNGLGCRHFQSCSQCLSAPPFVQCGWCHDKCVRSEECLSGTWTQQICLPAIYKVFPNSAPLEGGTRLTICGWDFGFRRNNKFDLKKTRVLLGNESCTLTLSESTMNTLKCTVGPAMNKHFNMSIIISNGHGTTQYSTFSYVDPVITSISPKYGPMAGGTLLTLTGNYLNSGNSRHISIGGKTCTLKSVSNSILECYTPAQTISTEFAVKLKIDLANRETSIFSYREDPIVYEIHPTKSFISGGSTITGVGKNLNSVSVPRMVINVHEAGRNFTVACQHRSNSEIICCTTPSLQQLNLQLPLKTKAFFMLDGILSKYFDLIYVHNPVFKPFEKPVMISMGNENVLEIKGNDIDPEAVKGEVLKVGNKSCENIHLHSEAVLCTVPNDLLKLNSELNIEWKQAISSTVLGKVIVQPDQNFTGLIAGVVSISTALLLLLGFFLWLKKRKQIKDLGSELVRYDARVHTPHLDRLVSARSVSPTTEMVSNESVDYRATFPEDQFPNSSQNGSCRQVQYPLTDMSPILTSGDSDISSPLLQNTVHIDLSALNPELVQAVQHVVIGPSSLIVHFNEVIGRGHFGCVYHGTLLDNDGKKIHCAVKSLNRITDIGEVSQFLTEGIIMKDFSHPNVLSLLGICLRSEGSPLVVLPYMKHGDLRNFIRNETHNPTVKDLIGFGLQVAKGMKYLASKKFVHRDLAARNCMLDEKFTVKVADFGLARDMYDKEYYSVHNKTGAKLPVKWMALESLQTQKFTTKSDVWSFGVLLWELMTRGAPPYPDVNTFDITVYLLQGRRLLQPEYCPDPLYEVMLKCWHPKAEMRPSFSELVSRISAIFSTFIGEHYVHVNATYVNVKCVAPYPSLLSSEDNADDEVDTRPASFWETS

IC50 [3] [µM]	SMILES	IC50 [2] [µM]	Activity [5]	Activity [6]	inhibition [7]	other results
–	Cc1[nH]c(/C=C2\C(=O)Nc3ccc(S(=O)(=O)N(C)c4cccc(Cl)c4)cc32)c(C)c1C(=O)N1CCN(C)CC1	–	–	–	–	inhibition [1]: Active
> 100	OCCc1ccc(O)cc1 [TYROSOL]	> 100	Non-toxic	Non-toxic	–	inhibition [4]: inactive
–	C/C=C(/C=O)[C@@H](CC=O)CC(=O)OCCc1ccc(O)cc1 [(-)-OLEOCANTHAL]	–	Non-toxic	Non-toxic	inactive	inhibition [8]: 93.4%; inhibition [9]: Active; inhibition [10]: Active
–	COc1cc(/C=C/C(=O)OCCc2ccc(O)cc2)cc(OC)c1O [TYROSOL SINAPATE]	–	Non-toxic	Non-toxic	inactive	inhibition [11]: Active; inhibition at 20 µM [12]: > 50%
41.6	O=C(Cc1ccc(O)c(O)c1)OCCc1ccc(O)cc1	> 100	Non-toxic	Non-toxic	inactive	inhibition [11]: Active
46.7	COc1cc(/C=C/C(=O)OCCc2ccc(O)cc2)cc(OC)c1OC	> 100	Non-toxic	Non-toxic	inactive	inhibition [11]: Active
–	CCn1cc(C(=O)OCCc2ccc(O)cc2)c(=O)c2ccc(C)nc21	–	Non-toxic	Non-toxic	–	Activity [13]: 36%; Activity [14]: 60%
> 100	O=C(NCc1ccccc1)OCCc1ccc(O)cc1	> 100	Non-toxic	Non-toxic	–	–
13.8	C=C[C@@H]1[C@H](O)OC=C(C(=O)OC)[C@H]1CC(=O)OCCc1ccc(O)cc1 [LIGSTROSIDE AGLYCONE]	80.4	Non-toxic	Non-toxic	–	inhibition at 25 µM [11]: 60%; inhibition at 20 µM [12]: > 50%
19.4	COc1cc(C(=O)OCCc2ccc(O)cc2)cc(OC)c1O [TYROSOL SYRINGATE]	> 100	Non-toxic	Non-toxic	inactive	inhibition at 25 µM [11]: 60%
> 100	Cc1ccc(S(=O)(=O)NC(=O)OCCc2ccc(O)cc2)cc1 [4-HYDROXYPHENETHYL TOSYLCARBAMATE]	> 100	Non-toxic	Non-toxic	inactive	–
> 100	COc1cc(CC(=O)OCCc2ccc(O)cc2)ccc1O [TYROSOL HOMOVANILLATE]	> 100	Non-toxic	Non-toxic	inactive	–
> 100	O=C(/C=C/c1ccc(O)c(O)c1)OCCc1ccc(O)cc1 [TYROSOL CAFFEATE]	> 100	Non-toxic	Non-toxic	inactive	inhibition at 20 µM [12]: > 50%

SMILES	IC50 [3] [µM]	IC50 [2] [µM]	Activity [5]	Activity [6]	inhibition [7]	other results
O=C(NCc1ccccc1)OCCc1ccc(OC(=O)NCc2ccccc2)cc1	> 100	> 100	Non-toxic	Non-toxic	inactive	–
